Measurements: PubChem BioAssay AID1963848 (Molecular Pharmacology Branch, DTP, NCI, 2024)

System: 379773-124-R-J2-PDC spheroid viability
Experiment: Anticancer human tumor 379773-124-R-J2-PDC patient-derived endometrial carcinoma cell line growth inhibition [POLQ]
Details: spheroids with HUVEC and MSC; for IC50: curve of first compound; for viability, T/C: stronger effect = lower value
How it was run: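 Growth inhibition in 3D: complex spheroids (tumor PDC, HUVEC, MSC) treated with POLQ inhibitor combinations; where Cmax unknown, highest tested concentration 10 microM, except SN-38 at 1 microM.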
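Note: spheroids exposed to drugs for seven days before readout.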
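Throughout, for viability, T/C: percent viability relative to DMSO vehicle control taken as 100%.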

C=CC(=O)N1CCN(c2nc(=O)n(-c3c(C)ccnc3C(C)C)c3nc(-c4c(O)cccc4F)c(F)cc23)C(C)C1 (configuration not stated) + COC1C(OC(N)=O)C(O)C(Oc2ccc3c(O)c(NC(=O)c4ccc(O)c(CC=C(C)C)c4)c(=O)oc3c2C)OC1(C)C
IC50 (second compound 0.0316 µM): > 10 µM
IC50 (second compound 0.1 µM): > 10 µM
IC50 (second compound 0.316 µM): > 10 µM
IC50 (second compound 1 µM): > 10 µM
IC50 (second compound 3.16 µM): > 10 µM
IC50 (second compound 10 µM): > 10 µM
viability, T/C (second compound 0.0316 µM, first compound 0.0316 µM): 87.3%
viability, T/C (second compound 0.0316 µM, first compound 0.1 µM): 78.7%
viability, T/C (second compound 0.0316 µM, first compound 0.316 µM): 91.3%
viability, T/C (second compound 0.0316 µM, first compound 1 µM): 85.1%
viability, T/C (second compound 0.0316 µM, first compound 3.16 µM): 85.7%
viability, T/C (second compound 0.0316 µM, first compound 10 µM): 72.1%
viability, T/C (second compound 0.1 µM, first compound 0.0316 µM): 87.3%
viability, T/C (second compound 0.1 µM, first compound 0.1 µM): 87.2%
viability, T/C (second compound 0.1 µM, first compound 0.316 µM): 82.2%
viability, T/C (second compound 0.1 µM, first compound 1 µM): 91.1%
viability, T/C (second compound 0.1 µM, first compound 3.16 µM): 87.9%
viability, T/C (second compound 0.1 µM, first compound 10 µM): 95%
viability, T/C (second compound 0.316 µM, first compound 0.0316 µM): 91.2%
viability, T/C (second compound 0.316 µM, first compound 0.1 µM): 86.7%
viability, T/C (second compound 0.316 µM, first compound 0.316 µM): 86.8%
viability, T/C (second compound 0.316 µM, first compound 1 µM): 85.1%
viability, T/C (second compound 0.316 µM, first compound 3.16 µM): 79.3%
viability, T/C (second compound 0.316 µM, first compound 10 µM): 82.6%
viability, T/C (second compound 1 µM, first compound 0.0316 µM): 92.1%
viability, T/C (second compound 1 µM, first compound 0.1 µM): 94.8%
viability, T/C (second compound 1 µM, first compound 0.316 µM): 93.9%
viability, T/C (second compound 1 µM, first compound 1 µM): 88.8%
viability, T/C (second compound 1 µM, first compound 3.16 µM): 73.8%
viability, T/C (second compound 1 µM, first compound 10 µM): 95.8%
viability, T/C (second compound 3.16 µM, first compound 0.0316 µM): 73.2%
viability, T/C (second compound 3.16 µM, first compound 0.1 µM): 84.6%
viability, T/C (second compound 3.16 µM, first compound 0.316 µM): 82.9%
viability, T/C (second compound 3.16 µM, first compound 1 µM): 85%
viability, T/C (second compound 3.16 µM, first compound 3.16 µM): 85.9%
viability, T/C (second compound 3.16 µM, first compound 10 µM): 72.1%
viability, T/C (second compound 10 µM, first compound 0.0316 µM): 91.1%
viability, T/C (second compound 10 µM, first compound 0.1 µM): 85.1%
viability, T/C (second compound 10 µM, first compound 0.316 µM): 81.5%
viability, T/C (second compound 10 µM, first compound 1 µM): 80.5%
viability, T/C (second compound 10 µM, first compound 3.16 µM): 86%
viability, T/C (second compound 10 µM, first compound 10 µM): 89.4%
